# Experimental data taken from paper PMC7839693 (Chemistry (Weinheim an Der Bergstrasse, Germany), 2020).
# Experiments:
# M21 human melanoma cells = assay: In vitro cytotoxicity assay; format: cell-based; details: incubated alone (no β-glucuronidase)
# E. coli β‐glucuronidase = E. coli β‐glucuronidase (Escherichia coli, UniProt P05804); assay: β-glucuronidase cleavage assay / drug release; format: in vitro ADME
# human integrin αvβ3 = human integrin αvβ3 (Homo sapiens, UniProt P05106+P06756, DEL719-788); assay: Solid-phase receptor binding assay
# [1] = cited from earlier work
# [2] = cited from earlier work; remark: listed apart in the source
# [3] = Pilot experiment: stability of Cry-55gly under alkaline conditions; format: physicochemical; details: LiOH/H2O, 0 °C, 30 minutes, HPLC-MS
Structure (SMILES),decreased activity relative to the free drug 3 (M21 human melanoma cells) [fold],"release of Cry-55gly after β-glucuronidase cleavage (E. coli β‐glucuronidase; E. coli β-glucuronidase 200 U mL-1, 37 °C, 60 min, HPLC and UPLC-MS)","stability in the absence of enzyme (control) (E. coli β‐glucuronidase; control experiments without β-glucuronidase, buffer, 37 °C, HPLC)",IC50 (human integrin αvβ3) [nM],stability in mouse plasma [1],stability in human plasma [2],"conversion into the epoxide (cryptophycin-52, 4) [3] [%]"
"COc1ccc(C[C@H]2NC(=O)/C=C/C[C@@H]([C@H](C)[C@@H](OC(=O)CNC(=O)OCc3cc(NC(=O)CCCc4cn(CCC(=O)NCCCC[C@@H]5NC(=O)[C@@H](Cc6ccccc6)NC(=O)[C@H](CC(=O)O)NC(=O)CNC(=O)[C@H](CCCNC(=N)N)NC5=O)nn4)cc(O[C@@H]4O[C@H](C(=O)O)[C@@H](O)[C@H](O)[C@H]4O)c3)[C@@H](Cl)c3ccccc3)OC(=O)[C@H](CC(C)C)OC(=O)C(C)(C)CNC2=O)cc1Cl [compound 2, c(RGDfK)‐(m)‐GlcA‐linker‐Cry‐55gly]",70,not released over time,stable,11.7,–,–,–
"COc1ccc(C[C@H]2NC(=O)/C=C/C[C@@H]([C@H](C)[C@@H](OC(=O)CN)[C@@H](Cl)c3ccccc3)OC(=O)[C@H](CC(C)C)OC(=O)C(C)(C)CNC2=O)cc1Cl [compound 3, cryptophycin‐55 glycinate]",–,–,–,–,excellent stability,excellent stability,70
